Reference: patent US8507506B2, “Theophylline derivative inhibits osteoporosis” (Kaohsiung Medical University, priority 2011, dated 2013)
Marks after values point to notes of the source that are not given here.

Columns and labels:
Assay type in all cases: cell-based
[1] = system: MMP-9 mRNA in RAW264.7 cells; assay: RT-PCR, RANKL-induced mRNA expression of MMP-9; details: for RANKL-induced mRNA expression level of MMP-9: RAW264.7 cells, 24 hours, CTL 100%, mean ± SEM
Source text: The culture medium was discarded. […] [table] f) Running • A.

osteoclast-like cells = assay: Pit formation assay (dissolution of osteoclast-like cells); details: calcium phosphate coated plates, 10 ng/ml RANKL for five days, different concentrations, FIG. 5
Protocol: In order to confirm the influence of KMUP-1 to the bone dissolution of differentiated osteoclast-like cells, cells are cultured in the plates which are coated calcium phosphate of bone-like matrix in the bottom and are given 10 ng/ml RANKL for five days and different concentration of KMUP-1. According to the result, compared with the control group, in the group which is given 10 ng/ml RANKL alone for 5 days, the osteoclast-like cells have obviously dissolution activity, so the covers at the plate bottom present many holes. […] Subsequently, 100 μl medium with 1,000 cells were added into each well, and the total volume was 300 μl/well. The slides were incubated for 5 days, and the medium and the drugs were renewed every 2 days. After 5 days, the medium was removed, and the cells were washed by ddH2O 3 times. Subsequently, the cells were covered by Bleach solution for staining 5 minutes and then were washed by ddH2O for 5 times. After drying, the cells were took a photo by an optical microscopy (40× and 200×), and Autopano Pro V1.4.2, Kolor, Paris, was used to proceed the pictures taken in 40×.

[2] = system: IL-6 secretion by RAW264.7 cells; assay: ELISA, RANKL-induced secretion of IL-6; details: RAW264.7, ELISA, FIG. 7(A)
Protocol: Under RANKL stimulation, mononuclear RAW264.7 cells can secrete pro-inflammatory cytokines such as TNF-α, IL-1, IL-6, etc. ELISA is used to measure that KMUP-1 influences RANKL to induce the secretion of pro-inflammatory cytokines. […] 10^5 cells were plated per well in 24-well plates. […] After 24 hours reaction, the reaction fluid was centrifuged (13,000 rpm, 4° C., 20 minutes), and then the supernatant was tasted by ELISA kit (R&D system and eBioscience™) to detect the amount of TNF-α, IL-1β, IL-6, and IL-10. The experimental process is followed with the instructions of the kit.

[3] = system: ERK phosphorylation in RAW264.7 cells; assay: Western blot, phosphorylation of ERK induced by RANKL; details: 7.5 μM and 10 μM, RANKL 15 minutes, FIG. 9
Protocol: MAP kinases including ERK, JNK and p38 are stimulated by RANKL to be phosphorylized and further influence the down-stream key transcription factors which induce the differentiation of osteoclast-like cells such as c-Fos, NFATc1, etc. Before estimating the drug effect, 10 ng/ml RANKL are used to induce the phosphorylation of ERK, JNK and p38 at different time points. […] It is shown that KMUP-1 can reduce the activation of MAP kinases induced by RANKL. […] The proteins were collected by scraping and were centrifuged (13,000 rpm, 4° C., 30 minutes). The supernatant was stored in an eppendorf in −80° C. • c) Concentrations of the proteins were examined by Bio-Red DC Protein Assay. After knowing the concentrations, the proteins were diluted to specific concentrations by adding ddH2O. One forth volume of the diluted proteins of sample buffer was added into the diluted proteins and was put in boiled water for 5 min and then was chilled on ice for 5 minutes. After short time centrifugation, the diluted proteins could be injected into wells of a gel. The gel was run at 100 V for 10 minutes until the proteins were driven to the intersection between a loading gel and a running gel. Then, the voltage was swopped to 200 V for 40 minutes. • d) A PVDF membrane was immersed in Methanol for 2 minutes. After two washes in ddH2O, the membrane was immersed in transfer buffer for 15 minutes. […]

Q: Which “effect on mRNA expression of MMP-9 induced by RANKL (in words)” value ([1]; 10 ng/ml RANKL, summary of Table 1) does the source give for `Cn1c(=O)c2c(ncn2CCN2CCN(c3ccccc3Cl)CC2)n(C)c1=O` [KMUP-1, 7-[2-[4-(2-Chlorophenyl)piperazin-1-yl]ethyl] theophylline] here?
A: inhibits the mRNA expression

Q: And the “RANKL-induced mRNA expression level of MMP-9” value ([1]; RANKL 10 ng/ml + KMUP-1 1 μM)?
A: 1732.4 ± 168.9%

Q: What about the “RANKL-induced mRNA expression level of MMP-9” value ([1]; RANKL 10 ng/ml + KMUP-1 2.5 μM) of the same molecule?
A: 1619.9 ± 179.8%

Q: And the “RANKL-induced mRNA expression level of MMP-9” value ([1]; RANKL 10 ng/ml + KMUP-1 5 μM)?
A: 1570.9 ± 159.3% ^b

Q: What about the “RANKL-induced mRNA expression level of MMP-9” value ([1]; RANKL 10 ng/ml + KMUP-1 7.5 μM) of the same molecule?
A: 1439.8 ± 188.8% ^b

Q: What about the “RANKL-induced mRNA expression level of MMP-9” value ([1]; RANKL 10 ng/ml + KMUP-1 10 μM) of the same molecule?
A: 1372.0 ± 175.6% ^b

Q: And the “dissolution of osteoclast-like cells (dissolution area)” value (osteoclast-like cells)?
A: can inhibit the dissolution of osetocalst-like cells

Q: And the “RANKL-induced secretion of IL-6” value [2]?
A: presents a dose dependent inhibition phenomenon

Q: And the “phosphorylation of ERK induced by RANKL” value [3]?
A: can efficiently inhibit the phosphorylation of ERK, JNK and p38 induced by RANKL
